Assay results from ChEMBL document CHEMBL5050850, “Compositions and methods of using the same for treatment of neurodegenerative and mitochondrial disease” (2020).
pEC50: −log10 of the molar value. Values after ≈ are worked out from the molar mass of the structure shown.

Key:
[1] = AUC in mouse at 10 mg/kg, po; assay type: ADME, organism-based; set-up: dose 10 mg/kg; conditions: in vivo
[2] = Cmax in mouse at 10 mg/kg, po; assay type: ADME, organism-based; set-up: route oral, dose 10 mg/kg; conditions: in vivo
[3] = Oral bioavailability in mouse at 10 mg/kg; assay type: ADME, organism-based; conditions: in vivo
[4] = Half-life in mouse at 10 mg/kg, po; assay type: ADME, organism-based; conditions: in vivo
HeLa [5] = experiment: Cytotoxicity against human HeLa MKYP cells assessed as percentage of DAPI-positive cells at 50 uM and measured by DAPI staining method; assay type: toxicity, cell-based
[6] = Half-life in mouse at 50 mg/kg, po; assay type: ADME, organism-based; conditions: in vivo
[7] = Observed AUC in mouse 50 mg/kg, po; assay type: ADME, organism-based; set-up: dose 50 mg/kg; conditions: in vivo
[8] = Brain concentration in mouse at 50 mg/kg, po measured at 1 hr; assay type: ADME, organism-based; conditions: read-out: Drug uptake
[9] = Brain concentration in mouse at 10 mg/kg, po measured at 0.5 hrs; assay type: ADME, organism-based; conditions: read-out: Drug uptake
[10] = Cmax in mouse at 50 mg/kg, po; assay type: ADME, organism-based; set-up: route oral, dose 50 mg/kg; conditions: in vivo
[11] = Kidney concentration in mouse at 10 mg/kg, po measured at 0.5 hrs; assay type: ADME, organism-based; conditions: read-out: Drug uptake
[12] = Brain concentration in mouse at 10 mg/kg, po measured at 2 hrs; assay type: ADME, organism-based; conditions: read-out: Drug uptake
[13] = Initial plasma concentration in rat at 10 mg/kg, po; assay type: ADME, organism-based; conditions: in vivo
[14] = AUC (infinity) in rat at 10 mg/kg, po; assay type: ADME, organism-based; set-up: time infinity, route oral, dose 10 mg/kg; conditions: in vivo
[15] = AUC in mouse at 50 mg/kg, po; assay type: ADME, organism-based; set-up: dose 50 mg/kg; conditions: in vivo
[16] = Plasma concentration in mouse at 10 mg/kg, po measured at 1 hr; assay type: ADME, organism-based
[17] = Half-life in rat at 10 mg/kg, po; assay type: ADME, organism-based; conditions: in vivo
[18] = Oral bioavailability in mouse at 50 mg/kg; assay type: ADME, organism-based; conditions: in vivo
[19] = AUC (infinity) in mouse at 1 mg/kg, iv; assay type: ADME, organism-based; set-up: route intravenous, time infinity, dose 1 mg/kg; conditions: in vivo
[20] = AUC (extrapolated) in rat at 1 mg/kg, iv; assay type: ADME, organism-based; conditions: in vivo
[21] = AUC (infinity) in mouse at 10 mg/kg, po; assay type: ADME, organism-based; set-up: route oral, time infinity, dose 10 mg/kg; conditions: in vivo
[22] = Induction of mitophagy in human HeLa MKYP cells treated with FCCP/oligomycin for 6 hrs and measured by FACS analysis; assay type: functional, cell-based
[23] = MRT (infinity) in rat at 1 mg/kg, iv; assay type: ADME, organism-based; conditions: in vivo
HeLa [24] = experiment: Cytotoxicity against human HeLa MKYP cells assessed as cell death at 25 uM treated with FCCP/oliogmycin and measured DAPI staining method assay relative to control; assay type: toxicity, cell-based
[25] = Plasma concentration in mouse at 50 mg/kg, po measured at 1 hr; assay type: ADME, organism-based
[26] = Cmax in mouse at 1 mg/kg, iv; assay type: ADME, organism-based; set-up: route intravenous, dose 1 mg/kg; conditions: in vivo
[27] = Plasma concentration in mouse at 50 mg/kg, po measured at 2 hrs; assay type: ADME, organism-based
[28] = Kidney concentration in mouse at 50 mg/kg, po measured at 0.5 hrs; assay type: ADME, organism-based; conditions: read-out: Drug uptake
[29] = AUC in mouse at 1 mg/kg, iv; assay type: ADME, organism-based; set-up: dose 1 mg/kg; conditions: in vivo
[30] = Induction of mitophagy in human HeLa MKYP cells treated at 6.3 uM with FCCP/oligomycin for 6 hrs and measured by FACS analysis relative to control; assay type: functional; conditions: 6 h, 6.3 µM
[31] = Apparent volume of distribution in mouse at 10 mg/kg, po; assay type: ADME, organism-based; conditions: in vivo
[32] = Ratio of highest compound concentration with no observable mitotoxicity to EC50 of compound to induce mitophagy in human HeLa MKYP cells; assay type: functional
HeLa [33] = experiment: Cytotoxicity against human HeLa MKYP cells assessed as cell death at 25 uM and measured DAPI staining method assay relative to control; assay type: toxicity, cell-based
[34] = MRT (infinity) in mouse at 10 mg/kg, po; assay type: ADME, organism-based; conditions: in vivo
[35] = AUC (infinity) in rat at 1 mg/kg, iv; assay type: ADME, organism-based; set-up: route intravenous, time infinity, dose 1 mg/kg; conditions: in vivo
[36] = Initial plasma concentration in mouse at 10 mg/kg, po; assay type: ADME, organism-based; conditions: in vivo
[37] = AUC (extrapolated) in mouse at 1 mg/kg, iv; assay type: ADME, organism-based; conditions: in vivo
[38] = Plasma concentration in mouse at 50 mg/kg, po measured at 0.5 hrs; assay type: ADME, organism-based
[39] = Plasma concentration in mouse at 10 mg/kg, po measured at 0.5 hrs; assay type: ADME, organism-based
[40] = Plasma concentration in mouse at 10 mg/kg, po measured at 2 hrs; assay type: ADME, organism-based
[41] = MRT (infinity) in mouse at 1 mg/kg, iv; assay type: ADME, organism-based; conditions: in vivo
[42] = Kidney concentration in mouse at 10 mg/kg, po measured at 1 hr; assay type: ADME, organism-based; conditions: read-out: Drug uptake
[43] = Kidney concentration in mouse at 50 mg/kg, po measured at 2 hrs; assay type: ADME, organism-based; conditions: read-out: Drug uptake
[44] = Brain concentration in mouse at 50 mg/kg, po measured at 0.5 hrs; assay type: ADME, organism-based; conditions: read-out: Drug uptake
[45] = Apparent volume of distribution in rat at 10 mg/kg, po; assay type: ADME, organism-based; conditions: in vivo
[46] = Kidney concentration in mouse at 10 mg/kg, po measured at 2 hrs; assay type: ADME, organism-based; conditions: read-out: Drug uptake
[47] = Observed AUC in mouse at 1 mg/kg, iv; assay type: ADME, organism-based; set-up: dose 1 mg/kg; conditions: in vivo
[48] = Kidney concentration in mouse at 50 mg/kg, po measured at 1 hr; assay type: ADME, organism-based; conditions: read-out: Drug uptake
[49] = Brain concentration in mouse at 50 mg/kg, po measured at 2 hrs; assay type: ADME, organism-based; conditions: read-out: Drug uptake
[50] = Brain concentration in mouse at 10 mg/kg, po measured at 1 hr; assay type: ADME, organism-based; conditions: read-out: Drug uptake
[51] = Solubility of compound in PBS; assay type: physicochemical

## FC(F)(F)c1cc2c(NC3CCCc4ccccc43)ncnc2[nH]1 (stereo in doubt)
[1]
  AUC: 2.6 µM·h
[2]
  Cmax: 1080 nM
[3]
  bioavailability: 17.4%
[4]
  t1/2: 2 h
HeLa [5]
  Activity: 2.1%
[6]
  half-life: 3.9 h
[7]
  AUC: 27.4 µM·h
[8]
  concentration at 1 h: 6370 ng/g
[9]
  concentration at 0.5 h: 526 ng/g
[10]
  Cmax: 9800 nM
[11]
  concentration at 0.5 h: 1050 ng/g
[12]
  concentration at 2 h: 435 ng/g
[13]
  C0: 2.6 ng/mL
[14]
  AUC: 7348.4 ng·h/mL
[15]
  AUC: 35.5 µM·h
[16]
  concentration at 1 h: 276 ng/g
[17]
  t1/2: 3.7 h
[18]
  bioavailability: 37.9%
[19]
  AUC(0-inf): 487 ng·h/mL
[20]
  %AUCextra: 2.5%
[21]
  AUC: 803.3 ng·h/mL
[22]
  pEC50: 6.36
[23]
  MRT inf: 2 h
HeLa [24]
  Activity: 10.7%
[25]
  concentration at 1 h: 2080 ng/g
[26]
  Cmax: 1450 nM
[27]
  concentration at 2 h: 1420 ng/g
[28]
  concentration at 0.5 h: 6430 ng/g
[29]
  AUC: 1.5 µM·h
[30]
  Activity: 55.5%
[31]
  Vz: 5.4 L/kg
[32]
  Ratio: 40.02
HeLa [33]
  Activity: 2.59%
[34]
  MRT inf: 17.4 h
[35]
  AUC(0-inf): 838 ng·h/mL
[36]
  C0: 0.5 ng/mL
[37]
  %AUCextra: 1.1%
[38]
  concentration at 0.5 h: 1900 ng/g
[39]
  concentration at 0.5 h: 372 ng/g
[40]
  concentration at 2 h: 146 ng/g
[41]
  MRT inf: 0.7 h
[42]
  concentration at 1 h: 1290 ng/g
[43]
  concentration at 2 h: 7480 ng/g
[44]
  concentration at 0.5 h: 3340 ng/g
[45]
  Vz: 2.2 L/kg
[46]
  concentration at 2 h: 893 ng/g
[47]
  AUC: 1.4 µM·h
[48]
  concentration at 1 h: 11500 ng/g
[49]
  concentration at 2 h: 3980 ng/g
[50]
  concentration at 1 h: 737 ng/g
[51]
  solubility: 1 µM (≈ 0.332 µg/mL)
